Source: patent publication US8916586B2, “Anti-angiogenic compound” (University College Dublin—National University of Ireland, …, priority 2011, dated 2014)
“Also recorded” adds a separate entry of the source.

Tests used:
[1] = tested on: hyaloid vasculature in zebrafish; assay: Zebrafish developmental angiogenesis assay: number of primary branches of hyaloid vasculature on dissected lens; assay type: in vivo; conditions: 10 μM, treated day 1-5, analysed 5 dpf
From the text: We have used the zebrafish model as an in vivo screen for chemical libraries as the small size and transparency of the zebra fish enables high-content screens in multi-well plate formats (MacRae and Peterson, 2003; Pichler et al., 2003; Peterson et al., 2004; den Hertog, 2005; Zon and Peterson, 2005). […] To identify anti-angiogenic drugs we used a transgenic line of zebrafish that expresses a fluorescent reporter (EGFP) specifically in vasculature (Tg(fli1:efgp)). This line was obtained from the Zebrafish International Resource Center. Our assay involved screening the effect of drugs in the library on the development of blood vessels in zebrafish. Specifically, we looked at the integrity of vessels developing in the eye (hyaloid vessels attached to the lens) and in the trunk.
All experiments were carried out under ethical approval granted by the UCD animal research ethics committee. Tg(fli1:EGFP) zebrafish were maintained according to standard procedures on a 14 hr light/10 hr dark cycle at 28° C. Referring to the schematic of FIG. 1A, embryos were obtained by natural spawning and developmental stages established by time and morphological criteria. A chemical library containing numerous compounds was screened (FIG. 1A). In this specific example, the chemical library contained 5000 compounds of the DIVERSet™ collection from ChemBridge Corp., USA. At 24 hours post fertilisation (hpf), 5 embryos per well were placed in […] of Embryo Medium/1% DMSO and incubated with drug at 28° C. on a 14 h light/10 h dark cycle. Larvae were euthanised, and fixed in 4% PFA at 4° C. overnight before analysis. (FIG. 1A).
Right lenses were dissected from the larvae and transferred to depression slides for observation under epi-fluorescence in the Olympus SZX16 and to cover-slip bottom Petri-dishes for confocal microscopy in a Zeiss UV510 META LSM system (20× and 40× inverted objectives). To achieve appropriate orientation, lenses were embedded in 10% methyl-cellulose and manipulated with a tungsten needle (0.5 mm diameter). Patterning of the hyaloid vessels on the treated larval lenses was compared to DMSO controls and the archetypal pattern previously described (Alvarez et al., 2007; Alvarez et al., 2009). The number of primary vessels radiating from the back of the lens (3-4 main branches at 5 dpf in controls and previously described), was counted and the average number was graphed for each drug. From screens of ˜1600 small molecules, four “hits” that inhibited the number of primary hyaloids vessels were identified (FIG. 1B).
To validate the “hits” from the library screen, dose-dependence experiments were conducted by screening the drugs in the assay described in Example 2 above but at a range of increasing concentrations between 1-10 μM. Larvae were maintained under the drug treatments at 28° C. on 14 hr light/10 hr dark cycle until 5 days post fertilisation (dpf), when they were euthanised and fixed in 4% PFA at 4° C. overnight before analysis. The average number of primary hyaloids branches was graphed for each concentration of drug. […] One of the lead compounds identified by the screen of chemical library was 11B which has the chemical name 2-[2-2-quinolinyl)vinyl]phenol and its structure shown below: […]

[2] = tested on: dermal-derived normal human microvascular endothelial cells (HMVEC-d); assay: In vitro HMVEC-d tube formation assay on Matrigel; assay type: cell-based; conditions: 100 nM, 20 hr
Method: HMVEC-d were purchased from Clonetics, San Diego, Calif., USA. Cells were maintained in complete Endothelial Cell Medium (Clonetics® EGM®-2-MV BulletKit®) containing 500 ml of Endothelial Cell Basal Medium-2 and supplemented with hEGF, 0.5 ml; Hydrocortisone, 0.2 ml; GA-1000, 0.5 ml; FBS, 25 ml; VEGF, 0.5 ml; hFGF-B, 2.0 ml; R3-IGF-1, 0.5 ml; Ascorbic Acid, 0.5 ml in a 37° C. humidified atmosphere of 5% CO2/95% air. HMVEC-d were used for experiments between passages 4-8.
Matrigel (Becton Dickenson) basement membrane matrix was used to examine HMVEC-d tube formation. Matrigel (50 μl) was plated in 96 well culture plate wells after thawing on ice and allowed to polymerise at 37° C. 5% CO2 humidified atmosphere for 1 hr. HMVEC-d were removed from culture, trypsinised, and resuspended in full strength EGM growth medium. Cells were seeded at a density of 50×10^4 cells/cm^2 and incubated for 20 hr at 37° C. 5% CO2 humidified atmosphere. Endothelial cell tubule formation was assessed using phase contrast microscopy and photographed. A connecting branch between two discrete ECs was counted as one tube. The tube analysis was determined from 3 sequential fields (magnification×10) focusing on the surface of the matrigel.

[3] = tested on: mouse model of oxygen induced retinopathy (OIR); assay: Mouse oxygen-induced retinopathy (OIR) model of ocular neovascularisation; assay type: in vivo; conditions: 2 μg/μl, postnatal day 12-17, intravitreal
Method: To assess the ability of compound 11B to inhibit ocular neovascularisation in mammalian eyes, 11B was tested in the mouse model of oxygen induced retinopathy (OIR). […] 11B was injected intravitreally into a mouse model of oxygen-induced retinopathy (OIR). The OIR model was generated by placing postnatal day 7 (P7) mouse pups into hyperoxia (75% oxygen) for 5 days and then removing them to normoxia (21%) on postnatal day 12 (P12). The hyperoxic (high oxygen) environment causes retinal blood vessels to regress between P7 and P12. The normoxic environment on P12 is a relatively hypoxic (low oxygen) environment for the mice and causes the growth of new blood vessels (angiogenesis). For all samples, eyes were enucleated, fixed, flat mounted and then stained with an isolectin antibody to visualise the blood vessels. Blood vessels were quantified and those treated with lead compounds compared to controls.

## COc1cc2c(cc1OC)C(c1ccc3c(c1)OCO3)N(C)CC2 (racemic) [11F-522, 1-(1,3-benzodioxol-5-yl)-6,7-dimethoxy-2-methyl-1,2,3,4-tetrahydroisoquinoline]
[1]
  number of primary branches of hyaloid vasculature: inhibited developmental angiogenesis; also recorded: significant (p<0.05) reduction; also recorded: significant inhibition; also recorded: significantly reduce

## COc1cc2c(cc1OC)[C@@H](c1ccc3c(c1)OCO3)N(C)CC2 (single isomer, unassigned) [11F-522R]
[1]
  number of primary branches of hyaloid vasculature: significant (p<0.05) reduction; also recorded: significantly reduce

## COc1cc2c(cc1OC)[C@H](c1ccc3c(c1)OCO3)N(C)CC2 (single isomer, unassigned) [11F-522S]
[1]
  number of primary branches of hyaloid vasculature: did not reduce

## Oc1ccc(/C=C\c2ccnc3ccccc23)cc1 [11B-799, 4-[2-(4-quinolinyl)vinyl]phenol]
[1]
  number of primary branches of hyaloid vasculature: inhibits developmental angiogenesis; also recorded: significant inhibition

## Avastin: clinically used anti-angiogenic monoclonal antibody, anti-VEGF [reference compound]
[2]
  inhibition of HMVEC-d tubule formation: significantly inhibited
[3]
  avascular area of the retina in treated eyes: ~22%
